Laboratory results: article PMC8401465, “In Vitro Testing of Alternative Synthetic and Natural Antiparasitic Compounds against the Monogenean Sparicotyle chrysophrii” (Pathogens, 2021)
Entries after “also recorded” stand apart in the source; their conditions may differ. Like-named read-outs stand apart in the source and are kept apart here.

Legend:
Vibrio harveyi = experiment: Bactericidal activity (MTT), Vibrio harveyi; format: cell-based; conditions: for inhibition at 0.1 µM / inhibition at 1 µM / inhibition at 10 µM: Vibrio harveyi, read-out: Bactericidal activity (%)
Description: (§1) Two bacterial fish pathogens, Vibrio harveyi and V. anguillarum were used to test the bactericidal activity of the target compounds, being previously isolated and identified as described in [65]. Lab strains were maintained at −20 °C in Tryptone Soy Broth (TSB, Difco Laboratories, Inc., Detroit, MI, USA) supplemented with 1% (w/v) NaCl (TSB1) and 50% (v/v) glycerol. […] Bacteria in TSB medium were then cultured at the same temperature with continuous shaking (100 rpm) for 24 h. Exponentially grown bacteria were resuspended in sterile PBS and adjusted to the concentration of 10^8 colony forming units (cfu)/mL. Each target compound (20 μL; concentrations 0.1, 1, and 10 µM) was added (in triplicates) to the wells of a flat-bottom 96-well plate, except for the positive control that consisted of 0.5% DMSO in PBS. Aliquots of 20 μL of the previously cultured bacteria were added, and the plate was incubated for 5 h at 25 °C. […] The plate was then centrifuged (4500 rpm, 10 min) and the precipitate dissolved in 200 μL of DMSO. The solution (100 μL) from each well was transferred to another flat-bottom 96-well plate. The absorbance of the dissolved formazan was measured at 570 nm. Bactericidal activity was expressed as percentage of nonviable bacteria, calculated as the difference between absorbance of surviving bacteria compared to the absorbance of bacteria in positive controls (100%).

[1] = system: Sparicotyle chrysophrii adults; experiment: microbe, parasite or virus in culture; conditions: Sparicotyle chrysophryii
Description: Firstly, the adult monogeneans were exposed to a range of four concentrations of tested compounds encompassing the full dose–response range; each compound stock at 10 mM was serially diluted 10 (1 mM), 10^2 (0.1 mM), 10^3 (0.01 mM), and 10^4 (1 µM) times. […] Ten monogeneans per well (in triplicate) were added to 2 mL sterile seawater (SW) in 6-well plates, checked at the stereomicroscope for visible signs of mechanical damage, and exposed to selected concentrations in the dark at room temperature (Table 1). The number of live/dead parasites was recorded under the stereomicroscope at 1, 4, 12, and 24 h post-exposure. S. chrysophrii was considered to be alive if it performed any type of movement autonomously or 5 s after gentle probing with a dissection needle. Negative controls comprised the seawater with up to 0.5% of DMSO in total volume, the latter used as a solvent for each compound.

SAF-1 cells = experiment: Viability of SAF-1 cell line (MTT assay); format: cell-based, Sparus aurata; conditions: for viability of SAF-1 cells compared to control: 0.1–10 µM, 24, 48, 72 h
Description: Sparus aurata fibroblast cell line SAF-1 (ECACC n°00122301) was cultured in 25 cm^2 plastic flasks (Nunc, Darmstadt, Germany) in L-15 Leibowitz medium (Sigma, Haverhill, UK) supplemented with 10% fetal bovine serum (FBS), 2 mmol/L L-glutamine, 100 iu/mL penicillin, and […] streptomycin (all reagents from Sigma-Aldrich, Saint Louis, MO, USA).
Cells were grown at 25 °C under an 85% humidity atmosphere. Cells at 80% of confluence were detached with trypsin solution (0.25% of trypsin in PBS, pH 7.2–7.4) and pelleted by centrifugation (1000 rpm, 10 min, 25 °C). The cell suspension in complete medium was dispensed in a 96-multiwell plate at a density of 8000 cells/well and incubated for 24 h before the exposure to the compounds.
Cytotoxicity assay was performed in six replicates. Stock solutions were prepared by dissolving the compounds in dimethyl sulfoxide (DMSO), and then diluting in complete medium (final concentration of DMSO 0.1%) to obtain concentration of 0.1, 1, and 10 µM of target compounds.
Cells were then incubated for 24, 48, and 72 h in three different plates at 25 °C. Control samples received the same volume of culture medium and DMSO 0.1%, although this concentration of solvent is considered non-toxic.
The toxicity of the compounds was determined using the (3-(4,5-dimethylthiazol-2-yl)-2,5-diphenyltetrazolium bromide (MTT, Sigma-Aldrich) assay, according to [62], as reported in [61]. The results were expressed as viability percentage in respect to the controls (untreated cells).
The MTT assay is based on the reduction in the yellow soluble tetrazolium salt (3-(4,5-dimethylthiazol-2-yl)-2,5-diphenyltetrazolium bromide) (MTT, Sigma-Aldrich, Saint Louis, Missouri, USA) into a blue, insoluble formazan produced by the mitochondrial succinate dehydrogenase. […] After 4 h of incubation, cells were washed again, and the formazan crystals solubilized with […] of DMSO. Plates were shaken (5 min, 100 rpm) in dark conditions and the optical densities (ODs) at 570 nm with background subtraction at 690 nm were determined in a microplate reader (Opsys MR™ Microplate Reader, USA). The percentage of viability was determined by formula:Viability (%) = (OD of the tested sample/OD of the control sample) × 100

Vibrio anguillarum = experiment: Bactericidal activity (MTT), Vibrio anguillarum; format: cell-based; conditions: for inhibition at 0.1 µM / inhibition at 1 µM / inhibition at 10 µM: Vibrio anguillarum, read-out: Bactericidal activity (%); for antibacterial activity against V. anguillarum: among the natural compounds
Description: as §1

[2] = system: wild and drug-resistant Leishmania donovani amastigotes; set-up: method as in PMID 28400285; conditions: cited from earlier work
[3] = system: Sparicotyle chrysophrii adults; experiment: microbe, parasite or virus in culture; conditions: for LC20 (95% CI), toxicity level for adult S. chrysophrii: 20% mortality; for LC20 (95% CI), toxicity level for adult S. chrysophrii / LC80 (95% CI), toxicity level for adult S. chrysophrii: 4 h post-exposure; for LC80 (95% CI), toxicity level for adult S. chrysophrii: 80% mortality; for LC50: Sparicotyle chrysophryii, 4 h, read-out: LC50 (95% CI), toxicity level for adult S. chrysophrii; for b (SE), slope of dose–response model / e (SE), midpoint of dose–response model: Weibull type 2, c = 0, d = 1, mortality at 4 h post-exposure
Description: Subsequently, the monogeneans (n = 6, in triplicate) were exposed to a range of seven concentrations tailored according to each compound’s activity observed in preliminary tests. The range for each compound was scaled down to an appropriate order of magnitude so that each compound reached 100% mortality at 4 h post-exposure (Table 1).
For the dose–response curve fitting, the drc package for R (v4.0.4) was used. An appropriate nonlinear regression model was selected between log-logistic and Weibull type models, based on the Akaike information criterion (AIC) and lack-of-fit test criteria through the use of mselect function. The best scoring model was Weibull type 2 model (asymmetrical) with lower and upper limits fixed to 0 and 1, respectively, as mortality in all assays reached 100%. […] Model parameters and estimated lethal doses (20%, 50%, and 80%) were calculated with standard errors and 95% confidence intervals, based on the delta method, respectively, and adjusted for simultaneous inference through multcomp package. Dose–response curves were visualised using ggplot2 library.

Row | SMILES | inhibition at 0.1 µM (Vibrio harveyi; 0.1 µM, 5 h at 25 °C) [%] | inhibition at 1 µM (Vibrio harveyi; 1 µM, 5 h at 25 °C) [%] | inhibition at 10 µM (Vibrio harveyi; 10 µM, 5 h at 25 °C) [%] | viability of SAF-1 cells compared to control (SAF-1 cells) | inhibition at 0.1 µM (Vibrio anguillarum; 0.1 µM, 5 h at 25 °C) [%] | inhibition at 1 µM (Vibrio anguillarum; 1 µM, 5 h at 25 °C) [%] | inhibition at 10 µM (Vibrio anguillarum; 10 µM, 5 h at 25 °C) [%] | LC20 (95% CI), toxicity level for adult S. chrysophrii [3] | LC80 (95% CI), toxicity level for adult S. chrysophrii [3] | LC50 [3] [µM] | b (SE), slope of dose–response model [3] | e (SE), midpoint of dose–response model [3] | potency / effect against V. anguillarum as judged in the discussion (Vibrio anguillarum) | antibacterial activity against V. anguillarum (Vibrio anguillarum; p < 0.05) | also measured
1 | CCCCCCc1ccc(O)cc1O [4-Hexylresorcinol, reference compound] | 19.6 ± 31.5 | 34.7 ± 10.1 | 67.5 ± 14.1 | did not induce a significant reduction in viability | -121 ± 10.9 | -76.1 ± 33.9 | -55.5 ± 31.6 | – | – | – | – | – | – | – | bactericidal activity against V. harveyi (Vibrio harveyi; synthetic compounds, at increased concentrations): significant bactericidal activity; mortality at 1000 µM ([1]; 1 h): 100%
2 | S=C=Nc1ccc(N=C=S)cc1 [Bitoscanate, reference compound] | – | – | – | did not induce a significant reduction in viability | – | – | – | – | – | – | – | – | – | – | inhibition at 0.1 µM (Vibrio harveyi; 5 h): -21.6 ± 6%; inhibition at 1 µM (Vibrio harveyi; 5 h): -0.088 ± 16.3%; inhibition at 10 µM (Vibrio harveyi; 5 h): 13.1 ± 5.1%; mortality at 1000 µM ([1]; 24 h): 100%; antimicrobial activity against V. anguillarum (Vibrio anguillarum; 10 µM, p < 0.05): best antimicrobial activity; inhibition at 0.1 µM (Vibrio anguillarum; 5 h): -10.8 ± 19.9%; inhibition at 1 µM (Vibrio anguillarum; 5 h): 19.6 ± 3.7%; inhibition at 10 µM (Vibrio anguillarum; 5 h): 30.5 ± 2%
3 | C[C@@H]1CC[C@H]2C(C)(C)[C@H]3C[C@@]12CC[C@@]3(C)O [Cedrol] | -44.9 ± 7.7 | -23.8 ± 6.9 | -2.4 ± 26.9 | – | -6.9 ± 3 | 24.1 ± 8 | 30.8 ± 6.4 | 0.09 (0.06–0.11) mM | 0.14 (0.12–0.16) mM | 110 | 3.98 (0.66) | 0.12 (0.01) | effective only against V. anguillarum | strongest antibacterial activity | fold increase of selectivity index (CC50/IC50) ([2]; incorporated and delivered within lipid nanocarrier, wild-type L. donovani): 2.1; IC50 ([2]; wild and drug-resistant L. donovani amastigotes infecting humans, read-out: inhibitory concentration (IC50)): 1500 nM; reduction in sea bream fibroblasts' viability (SAF-1 cells; 10 µM, 72 h of exposure): highest reduction in sea bream fibroblasts’ viability; also recorded: moderately toxic to the host cell line during long-term exposure to very high concentrations; times the L. donovani IC50 is lower than the LC50 observed for S. chrysophrii ([3]; IC50 1.5 μM (ref 33) against own LC50): approximately 73
4 | COc1cc(/C=C/C(=O)CC(=O)/C=C/c2ccc(O)c(OC)c2)ccc1O [Curcumin] | 2.1 ± 15 | 7.6 ± 2.1 | 10.4 ± 4.5 | – | 9.5 ± 7.5 | 24.5 ± 14.6 | 34.9 ± 1.2 | 0.14 (0.06–0.23) mM | 0.36 (0.26–0.45) mM | 240 | 2.14 (0.44) | 0.29 (0.03) | potent anti-Vibrio anguillarum agent | strongest antibacterial activity | potency / effect against V. harveyi as judged in the discussion (Vibrio harveyi): ineffective against V. harveyi; cytotoxicity in SAF-1 cells (SAF-1 cells; 10 µM for 24 h): exerted significant cytotoxicity; fold less toxic for the monogenean compared to cedrol ([3]; comparison with cedrol): 2
